This passage reports ΔT m, Kd and Tm results from PMC7466750, “Crystal structures of human ENPP1 in apo and bound forms” (Acta Crystallographica. Section D, Structural Biology, 2020).

Experiment [1] has as its target T1, hENPP1 (Homo sapiens, UniProt P22413).
T1 sequence (P22413 98-925): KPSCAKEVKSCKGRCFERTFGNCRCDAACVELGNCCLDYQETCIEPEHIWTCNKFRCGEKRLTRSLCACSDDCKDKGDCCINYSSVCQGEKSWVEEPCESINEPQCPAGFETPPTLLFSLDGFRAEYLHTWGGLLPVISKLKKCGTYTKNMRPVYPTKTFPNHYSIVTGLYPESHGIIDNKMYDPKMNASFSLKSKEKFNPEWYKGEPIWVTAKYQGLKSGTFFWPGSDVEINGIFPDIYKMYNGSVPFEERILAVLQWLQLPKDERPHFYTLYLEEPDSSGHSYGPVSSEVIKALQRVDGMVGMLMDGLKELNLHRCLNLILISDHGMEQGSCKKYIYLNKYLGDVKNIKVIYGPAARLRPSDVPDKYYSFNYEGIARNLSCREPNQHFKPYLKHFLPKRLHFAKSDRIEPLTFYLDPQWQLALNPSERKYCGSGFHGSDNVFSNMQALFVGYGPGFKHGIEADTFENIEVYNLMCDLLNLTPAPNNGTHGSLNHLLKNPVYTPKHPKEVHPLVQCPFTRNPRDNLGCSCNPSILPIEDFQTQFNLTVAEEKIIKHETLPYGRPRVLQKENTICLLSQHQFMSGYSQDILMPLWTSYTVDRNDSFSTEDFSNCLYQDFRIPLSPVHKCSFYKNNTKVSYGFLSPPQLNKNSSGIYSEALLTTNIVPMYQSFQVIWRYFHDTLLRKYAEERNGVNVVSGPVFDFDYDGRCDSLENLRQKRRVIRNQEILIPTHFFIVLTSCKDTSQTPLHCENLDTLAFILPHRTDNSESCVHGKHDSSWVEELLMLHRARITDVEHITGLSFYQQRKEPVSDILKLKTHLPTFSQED
Nature of the experiment: Differential scanning fluorimetry (DSF) thermal shift of hENPP1. Format: binding. As to conditions: for ΔT m: DSF. Here is the method: DSF experiments were performed using a Bio-Rad CFX96 thermocycler, with the fluorescence intensity measured with excitation and emission at 490 and 570 nm, respectively. Plates were heated from 20 to 100°C at a heating rate of 1.0°C min^−1. Protein was present at a final concentration of 15 µg ml^−1. The well volume was 20 µl. The buffer was 50 mM Tris–HCl pH 7.4, 150 mM NaCl, 50 µM ZnCl2. […] Ligands and controls were present in triplicate.

Experiment [2] addresses T1, hENPP1. Put plainly: Surface plasmon resonance (SPR) binding to immobilised hENPP1 98–925, 1:1 steady-state affinity model. Also noted: hENPP1^98–925 was coupled to the chip surface at 25°C; made in house; host or cells: 293-F cells (human), with 5 µM kifunensine. Here is the method:
The protein was diluted to 25 µg ml^−1 at pH 6.0 [10 mM 2-(N-morpholino)ethanesulfonic acid (MES), 0.005%(v/v) Tween 20] and injected to an immobilization level of 8–10 kRU. The surface was then blocked with 1 M ethanolamine pH 8.0 for 7 min. SPR experiments were performed at 25°C in SPR running buffer consisting of 50 mM Tris pH 7.4, 150 mM NaCl, 50 µM ZnCl2, 0.005%(v/v) Tween 20, 2%(v/v) DMSO. When performing dose–response testing, analytes were serially diluted (twofold or threefold), injected for 30–90 s contact time and allowed to dissociate back to baseline. The flow rate was 60 µl min^−1. Binding sensorgrams were processed, solvent-corrected and double-referenced using the Scrubber software (BioLogic Software, Australia). Responses at equilibrium for each analyte were fitted to a 1:1 steady-state affinity model that was available within Scrubber.

Where [3] appears, read: Determined by SPR, triplicates ± SD, 25°C, pH 7.4.

Some results are limits rather than exact numbers.

As for `Cc1cn([C@H]2C[C@H](O)[C@@H](COP(=O)(O)O)O2)c(=O)[nH]c1=O` [TMP], the ΔT m entry in experiment [1] (compounds at 100 µM) is “+1.2”. Further, the Kd in experiment [2] (setting [3]) is 1.8 ± 0.3 µM; in experiment [2] (SPR), > 1 µM.
As for `COc1cc2ncnc(N3CCC(CNS(N)(=O)=O)CC3)c2cc1OC` [QPS2], in experiment [1] (compounds at 100 µM), the ΔT m entry is reported as “+4.5”. Further, the affinity in experiment [2] (setting [3]), expressed as Kd, was 0.055 ± 0.006 µM.
Consider `O=c1ccn([C@@H]2O[C@H](COP(=O)(O)O)[C@@H](O)[C@H]2O)c(=O)[nH]1` [UMP], for which the ΔT m result in experiment [1] (compounds at 100 µM) was “+1.8”. For the same compound, the Kd in experiment [2] (setting [3]) is 1.1 ± 0.3 µM; in experiment [2] (SPR), > 1 µM.
With `Nc1ncnc2c1ncn2[C@@H]1O[C@H](COP(=O)(O)O)[C@@H](O)[C@H]1O` [AMP], the ΔT m result in experiment [1] (compounds at 100 µM) was “+2.7”. Also, the affinity in experiment [2] (setting [3]), expressed as Kd, was 0.103 ± 0.008 µM.
`Nc1nc(=O)c2ncn([C@@H]3O[C@H](COP(=O)(O)O)[C@@H](O)[C@H]3O)c2[nH]1` [GMP]: in experiment [1] (DSF melting curve, Supplementary Fig. S6), the Tm is given as 60.34 (+/-0.03). The ΔT m result in experiment [1] (compounds at 100 µM) is recorded as “+1.0”. In addition, in experiment [2] (setting [3]), binding was put at a Kd of 0.47 ± 0.06 µM.
On to `Nc1nc2c(ncn2[C@@H]2O[C@@H]3COP(=O)(O)O[C@H]4[C@@H](O)[C@H](n5cnc6c(N)ncnc65)O[C@@H]4COP(=O)(O)O[C@H]3[C@H]2O)c(=O)[nH]1` [3′3′-cGAMP], for which the ΔT m result in experiment [1] (tested at 10 µM) is given as “+1.2”. Also, the Kd in experiment [2] (setting [3]) was determined as 1.3 ± 0.3 µM; in experiment [2] (SPR) it was 1.3 µM.
Consider `Nc1ncnc2c1ncn2[C@@H]1O[C@H](COP(=O)(O)OP(=O)(O)O)[C@@H](O)[C@H]1O` [ADP], for which the ΔT m result in experiment [1] (compounds at 100 µM) is “+3.3”. For the same compound, in experiment [2] (setting [3]), the Kd is 0.056 ± 0.003 µM.
In the case of `Nc1ccn([C@@H]2O[C@H](COP(=O)(O)O)[C@@H](O)[C@H]2O)c(=O)n1` [CMP], in experiment [1] (compounds at 100 µM), the ΔT m entry was “+2.1”. Besides, the results for the Kd in experiment [2] (setting [3]) and in experiment [2] (SPR) were 1.5 ± 0.3 µM and > 1 µM, respectively.
For the compound `COc1ccc2c(Oc3ccc(NS(N)(=O)=O)cc3)ccnc2c1` [Ex54], the Kd in experiment [2] (setting [3]) came to 0.1 ± 0.02 µM.
